Data from ChEMBL document CHEMBL3885861, “Open TG-GATES”.

Species on record: Rattus norvegicus
Assay: Open TG-GATES - Regimen: Single
Format: toxicity, organism-based, Sprague-Dawley
Design: regimen Single, gender Male, age 6 weeks
Conditions: in vivo, po, route gavage; for TP / gamma-GTP / ALP / ALT / AST / BUN / CRE / Ca / Cl / DBIL / GLC / IP / K / LDH / Na / PL / RALB / TBIL / TC / TG: tissue Plasma; for APTT / Bas / Eos / Fbg / Hb / Ht / Lym / MCH / MCHC / MCV / Mono / Neu / PT / Plat / RBC / Ret / WBC: tissue Blood; for KIDNEY_L / KIDNEY_R / KIDNEY_TOTAL: tissue Kidney; for LIVER: tissue Liver
[1] = 300 mg/kg, 24 h, dose level Low
[2] = 1000 mg/kg, 3 h, dose level Middle
[3] = 1000 mg/kg, 6 h, dose level Middle
[4] = 1000 mg/kg, 9 h, dose level Middle
[5] = 1000 mg/kg, 24 h, dose level Middle

Question: Which TP [1] does the source give for `CCOc1ccc(NC(C)=O)cc1` [PHENACETIN] here?
Answer: 5.7 g/dL

Question: And the gamma-GTP [1]?
Answer: 1.2 IU/L

Question: What about the TERMINAL_BW [2] of the same compound?
Answer: 211.4 g

Question: And the APTT [2]?
Answer: 16.8 s

Question: What about the Bas [2] of the same compound?
Answer: 0%

Question: What about the Eos [2] of the same compound?
Answer: 1%

Question: And the Fbg [2]?
Answer: 302.8 mg/dL

Question: And the Hb [2]?
Answer: 13.4 g/dL

Question: What about the Ht [2] of the same compound?
Answer: 39.6%

Question: And the Lym [2]?
Answer: 75.6%

Question: And the MCH [2]?
Answer: 20.9 pg

Question: And the MCHC [2]?
Answer: 33.9%

Question: What about the MCV [2] of the same compound?
Answer: 61.6 fL

Question: What about the Mono [2] of the same compound?
Answer: 2.8%

Question: And the Neu [2]?
Answer: 20.4%

Question: What about the PT [2] of the same compound?
Answer: 13.9 s

Question: And the Plat [2]?
Answer: 119.7 x10_4/uL

Question: What about the RBC [2] of the same compound?
Answer: 643.4 x10_4/ul

Question: What about the Ret [2] of the same compound?
Answer: 8.8%

Question: And the WBC [2]?
Answer: 62.5 x10_2/uL

Question: What about the KIDNEY_L [2] of the same compound?
Answer: 0.9 g

Question: What about the KIDNEY_R [2] of the same compound?
Answer: 0.9 g

Question: And the KIDNEY_TOTAL [2]?
Answer: 1.8 g

Question: What about the LIVER [2] of the same compound?
Answer: 9.2 g

Question: What about the ALP [2] of the same compound?
Answer: 1732.2 IU/L

Question: What about the ALT [2] of the same compound?
Answer: 35 IU/L

Question: And the AST [2]?
Answer: 69 IU/L

Question: What about the BUN [2] of the same compound?
Answer: 9.4 mg/dL

Question: What about the CRE [2] of the same compound?
Answer: 0.1 mg/dL

Question: What about the Ca [2] of the same compound?
Answer: 11 mg/dL

Question: And the Cl [2]?
Answer: 100.4 meq/L

Question: And the DBIL [2]?
Answer: 0 mg/dL

Question: What about the GLC [2] of the same compound?
Answer: 232 mg/dL

Question: What about the IP [2] of the same compound?
Answer: 10.8 mg/dL

Question: What about the K [2] of the same compound?
Answer: 3.6 meq/L

Question: And the LDH [2]?
Answer: 64.8 IU/L

Question: And the Na [2]?
Answer: 139.8 meq/L

Question: What about the PL [2] of the same compound?
Answer: 150.8 mg/dL

Question: What about the RALB [2] of the same compound?
Answer: 2.6 g/dL

Question: And the TBIL [2]?
Answer: 0.032 mg/dL

Question: And the TC [2]?
Answer: 87 mg/dL

Question: And the TG [2]?
Answer: 50.6 mg/dL

Question: And the TP [2]?
Answer: 5.5 g/dL

Question: And the gamma-GTP [2]?
Answer: 1.4 IU/L

Question: And the TERMINAL_BW [3]?
Answer: 206.1 g

Question: What about the APTT [3] of the same compound?
Answer: 18 s

Question: And the Bas [3]?
Answer: 0%

Question: What about the Eos [3] of the same compound?
Answer: 0.2%

Question: And the Fbg [3]?
Answer: 311.4 mg/dL

Question: What about the Hb [3] of the same compound?
Answer: 13.9 g/dL

Question: What about the Ht [3] of the same compound?
Answer: 40.7%

Question: What about the Lym [3] of the same compound?
Answer: 73.2%

Question: What about the MCH [3] of the same compound?
Answer: 21.1 pg

Question: And the MCHC [3]?
Answer: 34.2%

Question: And the MCV [3]?
Answer: 61.6 fL

Question: And the Mono [3]?
Answer: 2%

Question: And the Neu [3]?
Answer: 24.2%

Question: What about the PT [3] of the same compound?
Answer: 14.2 s

Question: What about the Plat [3] of the same compound?
Answer: 124.9 x10_4/uL

Question: What about the RBC [3] of the same compound?
Answer: 661 x10_4/ul

Question: What about the Ret [3] of the same compound?
Answer: 9%

Question: And the WBC [3]?
Answer: 54.6 x10_2/uL

Question: What about the KIDNEY_L [3] of the same compound?
Answer: 0.9 g

Question: What about the KIDNEY_R [3] of the same compound?
Answer: 0.9 g

Question: And the KIDNEY_TOTAL [3]?
Answer: 1.9 g

Question: What about the LIVER [3] of the same compound?
Answer: 8.8 g

Question: What about the ALP [3] of the same compound?
Answer: 1388 IU/L

Question: And the ALT [3]?
Answer: 40.4 IU/L

Question: And the AST [3]?
Answer: 76 IU/L

Question: And the BUN [3]?
Answer: 11.2 mg/dL

Question: And the CRE [3]?
Answer: 0.1 mg/dL

Question: What about the Ca [3] of the same compound?
Answer: 10.9 mg/dL

Question: What about the Cl [3] of the same compound?
Answer: 102.6 meq/L

Question: And the DBIL [3]?
Answer: 0 mg/dL

Question: What about the GLC [3] of the same compound?
Answer: 188.4 mg/dL

Question: What about the IP [3] of the same compound?
Answer: 9.8 mg/dL

Question: What about the K [3] of the same compound?
Answer: 4 meq/L

Question: What about the LDH [3] of the same compound?
Answer: 73.6 IU/L

Question: And the Na [3]?
Answer: 139.2 meq/L

Question: And the PL [3]?
Answer: 151.8 mg/dL

Question: And the RALB [3]?
Answer: 2.6 g/dL

Question: And the TBIL [3]?
Answer: 0.04 mg/dL

Question: What about the TC [3] of the same compound?
Answer: 94.2 mg/dL

Question: What about the TG [3] of the same compound?
Answer: 23.4 mg/dL

Question: What about the TP [3] of the same compound?
Answer: 5.6 g/dL

Question: And the gamma-GTP [3]?
Answer: 1.2 IU/L

Question: And the TERMINAL_BW [4]?
Answer: 205.3 g

Question: What about the APTT [4] of the same compound?
Answer: 17.2 s

Question: And the Bas [4]?
Answer: 0%

Question: What about the Eos [4] of the same compound?
Answer: 1%

Question: What about the Fbg [4] of the same compound?
Answer: 302.6 mg/dL

Question: And the Hb [4]?
Answer: 14 g/dL

Question: What about the Ht [4] of the same compound?
Answer: 40.8%

Question: And the Lym [4]?
Answer: 76.2%

Question: What about the MCH [4] of the same compound?
Answer: 21.1 pg

Question: What about the MCHC [4] of the same compound?
Answer: 34.3%

Question: What about the MCV [4] of the same compound?
Answer: 61.4 fL

Question: And the Mono [4]?
Answer: 3.4%

Question: What about the Neu [4] of the same compound?
Answer: 18.6%

Question: What about the PT [4] of the same compound?
Answer: 14.1 s

Question: What about the Plat [4] of the same compound?
Answer: 120 x10_4/uL

Question: What about the RBC [4] of the same compound?
Answer: 664.6 x10_4/ul

Question: And the Ret [4]?
Answer: 8.5%

Question: And the WBC [4]?
Answer: 49.5 x10_2/uL

Question: What about the KIDNEY_L [4] of the same compound?
Answer: 0.9 g

Question: What about the KIDNEY_R [4] of the same compound?
Answer: 0.9 g

Question: And the KIDNEY_TOTAL [4]?
Answer: 1.9 g

Question: What about the LIVER [4] of the same compound?
Answer: 8.8 g

Question: What about the ALP [4] of the same compound?
Answer: 1337.2 IU/L

Question: And the ALT [4]?
Answer: 38.6 IU/L

Question: And the AST [4]?
Answer: 70.2 IU/L

Question: What about the CRE [4] of the same compound?
Answer: 0.1 mg/dL

Question: And the Ca [4]?
Answer: 10.9 mg/dL

Question: And the Cl [4]?
Answer: 101.6 meq/L

Question: What about the DBIL [4] of the same compound?
Answer: 0.006 mg/dL

Question: What about the GLC [4] of the same compound?
Answer: 205.2 mg/dL

Question: What about the IP [4] of the same compound?
Answer: 9 mg/dL

Question: And the K [4]?
Answer: 3.9 meq/L

Question: What about the LDH [4] of the same compound?
Answer: 82 IU/L

Question: What about the PL [4] of the same compound?
Answer: 160.6 mg/dL

Question: And the RALB [4]?
Answer: 2.6 g/dL

Question: What about the TBIL [4] of the same compound?
Answer: 0.046 mg/dL

Question: What about the TC [4] of the same compound?
Answer: 95.2 mg/dL

Question: What about the TG [4] of the same compound?
Answer: 32.6 mg/dL

Question: What about the TP [4] of the same compound?
Answer: 5.6 g/dL

Question: What about the gamma-GTP [4] of the same compound?
Answer: 1.2 IU/L

Question: And the TERMINAL_BW [5]?
Answer: 204.2 g

Question: What about the APTT [5] of the same compound?
Answer: 17 s

Question: And the Bas [5]?
Answer: 0%

Question: What about the Eos [5] of the same compound?
Answer: 1%

Question: And the Fbg [5]?
Answer: 291.6 mg/dL

Question: What about the Hb [5] of the same compound?
Answer: 13.4 g/dL

Question: And the Ht [5]?
Answer: 40.1%

Question: And the Lym [5]?
Answer: 69%

Question: What about the MCH [5] of the same compound?
Answer: 20.5 pg

Question: And the MCHC [5]?
Answer: 33.5%

Question: And the MCV [5]?
Answer: 61.2 fL

Question: And the Mono [5]?
Answer: 3.2%

Question: What about the Neu [5] of the same compound?
Answer: 26.2%

Question: And the Plat [5]?
Answer: 127.8 x10_4/uL

Question: And the RBC [5]?
Answer: 654.4 x10_4/ul

Question: And the Ret [5]?
Answer: 7.5%

Question: And the WBC [5]?
Answer: 82.6 x10_2/uL

Question: What about the KIDNEY_L [5] of the same compound?
Answer: 1 g

Question: And the KIDNEY_R [5]?
Answer: 1 g

Question: And the KIDNEY_TOTAL [5]?
Answer: 1.9 g

Question: And the LIVER [5]?
Answer: 8.7 g

Question: What about the ALP [5] of the same compound?
Answer: 1673.4 IU/L

Question: What about the ALT [5] of the same compound?
Answer: 53.6 IU/L

Question: What about the AST [5] of the same compound?
Answer: 118.8 IU/L

Question: What about the BUN [5] of the same compound?
Answer: 13.6 mg/dL

Question: What about the CRE [5] of the same compound?
Answer: 0.2 mg/dL

Question: What about the Ca [5] of the same compound?
Answer: 10.9 mg/dL

Question: What about the Cl [5] of the same compound?
Answer: 105 meq/L

Question: And the DBIL [5]?
Answer: 0.038 mg/dL

Question: What about the GLC [5] of the same compound?
Answer: 167 mg/dL

Question: And the IP [5]?
Answer: 9.2 mg/dL

Question: What about the K [5] of the same compound?
Answer: 4.6 meq/L

Question: And the LDH [5]?
Answer: 202.2 IU/L

Question: What about the Na [5] of the same compound?
Answer: 141.6 meq/L

Question: What about the PL [5] of the same compound?
Answer: 166.6 mg/dL

Question: What about the RALB [5] of the same compound?
Answer: 2.6 g/dL

Question: And the TBIL [5]?
Answer: 0.052 mg/dL
